Reference: ChEMBL document CHEMBL1201862, “PubChem BioAssay data set” (2004)
Activity calls are given as the source filed them.

How the values were obtained:
[1] = cytotoxicity in HEK-293T cells, dose response, cytotoxicity control for BCR NF-kB inhibitor project, luminescence, B-cell screen hits (AID 489021); assay type: functional, cell-based;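 note: HEK-293T cells carrying an NF-kB luciferase reporter; cells exposed to compound for about 14 hours before viability readout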
[2] = target: T1, Endoribonuclease toxin MazF (Escherichia coli K-12, UniProt P0AE70); assay: fluorescent RNA oligo signal without MazF, dose response, counter-screen for MazEF activator project, biochemical, fluorescence, single-stranded RNase substrate (AID 588502); assay type: functional
T1 sequence (P0AE70 whole entry): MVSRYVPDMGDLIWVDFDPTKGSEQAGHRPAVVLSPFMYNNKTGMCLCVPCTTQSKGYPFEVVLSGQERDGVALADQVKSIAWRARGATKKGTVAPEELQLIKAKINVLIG

[3] = target: T1, Endoribonuclease toxin MazF; assay: MazF toxin RNase activators, dose response, biochemical, fluorescence, single-stranded RNA substrate, uHTS hits (AID 588481); assay type: functional
[4] = target: DNA dC->dU-editing enzyme APOBEC-3G (Homo sapiens, UniProt Q9HC16); assay: Dose Response confirmation of small molecule APOBEC3G DNA Deaminase Inhibitors via a fluorescence-based single-stranded DNA deaminase assay. [Related pubchem assays (depositor defined):AID493012, AID493028]; assay type: functional
cells [5] = assay type: functional, cell-based
cells [6] = assay type: functional, cell-based; remark: listed apart in the source
[7] = HEp-2 cell cytotoxicity, dose response, cytotoxicity control for RSV inhibitor project, HTS (AID 2410); assay type: functional; details: human respiratory syncytial virus
[8] = target: T2, Rac GTPase-activating protein 1 (Homo sapiens, UniProt Q9H0H5); assay: MgcRacGAP GTPase-activating activity inhibitors, confirmation, biochemical, ADP Hunter fluorescence, primary and confirmatory (AID 624330); assay type: functional
T2 sequence (Q9H0H5 whole entry): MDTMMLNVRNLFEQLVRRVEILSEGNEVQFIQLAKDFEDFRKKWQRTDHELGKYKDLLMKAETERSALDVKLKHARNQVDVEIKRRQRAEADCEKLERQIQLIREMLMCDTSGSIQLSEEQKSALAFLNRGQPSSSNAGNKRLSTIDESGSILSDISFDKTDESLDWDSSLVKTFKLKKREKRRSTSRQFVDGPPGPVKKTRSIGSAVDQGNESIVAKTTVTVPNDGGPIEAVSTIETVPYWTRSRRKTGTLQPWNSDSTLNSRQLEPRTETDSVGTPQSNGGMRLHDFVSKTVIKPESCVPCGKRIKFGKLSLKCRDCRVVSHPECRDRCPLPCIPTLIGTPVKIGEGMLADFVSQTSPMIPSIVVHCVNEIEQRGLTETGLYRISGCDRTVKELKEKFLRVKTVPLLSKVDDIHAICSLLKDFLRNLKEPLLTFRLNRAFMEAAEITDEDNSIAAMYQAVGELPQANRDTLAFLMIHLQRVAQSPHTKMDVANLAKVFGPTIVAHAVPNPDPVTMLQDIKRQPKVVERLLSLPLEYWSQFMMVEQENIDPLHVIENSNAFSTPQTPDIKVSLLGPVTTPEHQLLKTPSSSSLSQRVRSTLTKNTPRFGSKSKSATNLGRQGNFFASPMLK

Large T antigen = Large T antigen (Simian virus 40, UniProt P03070); assay type: functional, Betapolyomavirus macacae;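 note: Confirmatory-stage PubChem screen for compounds that inhibit SV40 T antigen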
[9] = HepG2 cell cytotoxicity, dose response, cytotoxicity control, plate reader, cherry-pick, antagonist series (AID 743416); assay type: functional, cell-based
[10] = LGR2 antagonists, dose response, cell-based, HEK293, CRE-luciferase reporter, cherry pick, set 2 (AID 743343); assay type: functional;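 note: transfected cells were stimulated with diluted bursicon conditioned medium after compound addition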
Cytochrome P450 2D6 = Cytochrome P450 2D6 (Homo sapiens, UniProt P10635);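 note: CYP2D6 member of a cytochrome P450 panel assay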
Cytochrome P450 2C9 = Cytochrome P450 2C9 (Homo sapiens, UniProt P11712)
[11] = MC4R antagonists, dose response, counter-screen for LGR2 antagonist project, cell-based, plate reader, cherry pick (AID 743444); assay type: functional;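 note: transfected HEK 293 cells stimulated with alpha-MSH peptide; potency of inhibitors of the alpha-MSH evoked signal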
[12] = target: T3, Microphthalmia-associated transcription factor (Homo sapiens, UniProt O75030); assay: TRPM1 promoter luciferase signal decrease, dose response, MITF inhibitor project, cell-based, SK-MEL-5, cherry-picked, set 3 (AID 493073); assay type: functional
T3 sequence (O75030 whole entry): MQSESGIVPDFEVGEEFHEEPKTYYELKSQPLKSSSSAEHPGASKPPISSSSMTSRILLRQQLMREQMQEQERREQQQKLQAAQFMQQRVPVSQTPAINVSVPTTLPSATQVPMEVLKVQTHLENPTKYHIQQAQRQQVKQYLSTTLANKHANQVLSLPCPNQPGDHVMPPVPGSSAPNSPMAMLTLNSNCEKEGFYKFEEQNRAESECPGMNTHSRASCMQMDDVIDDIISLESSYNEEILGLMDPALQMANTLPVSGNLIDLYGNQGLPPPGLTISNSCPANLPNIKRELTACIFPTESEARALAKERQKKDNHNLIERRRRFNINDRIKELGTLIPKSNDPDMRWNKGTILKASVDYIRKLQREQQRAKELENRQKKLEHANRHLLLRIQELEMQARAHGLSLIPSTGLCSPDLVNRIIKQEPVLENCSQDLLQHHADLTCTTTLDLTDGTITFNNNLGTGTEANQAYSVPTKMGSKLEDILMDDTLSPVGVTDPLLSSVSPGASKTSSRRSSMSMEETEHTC

[13] = inhibitors of intracellular T. cruzi replication, confirmation, NIH3T3 host cells, beta-gal luminescence (AID 2044); assay type: functional, cell-based;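 note: intracellular parasites grown in NIH/3T3 mouse fibroblasts as host cells; luminescent beta-galactosidase reporter signal from transgenic T. cruzi replicating inside host cells; inhibitors lower the luminescence signal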
[14] = cytotoxicity toward NIH3T3 fibroblasts, dose response, counter-screen, cell-based, ATP luminescence, mouse fibroblasts (AID 2010); assay type: functional;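 note: cells exposed to compound for about 90 hours before reading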

Sequence of DNA dC->dU-editing enzyme APOBEC-3G (Q9HC16 whole entry): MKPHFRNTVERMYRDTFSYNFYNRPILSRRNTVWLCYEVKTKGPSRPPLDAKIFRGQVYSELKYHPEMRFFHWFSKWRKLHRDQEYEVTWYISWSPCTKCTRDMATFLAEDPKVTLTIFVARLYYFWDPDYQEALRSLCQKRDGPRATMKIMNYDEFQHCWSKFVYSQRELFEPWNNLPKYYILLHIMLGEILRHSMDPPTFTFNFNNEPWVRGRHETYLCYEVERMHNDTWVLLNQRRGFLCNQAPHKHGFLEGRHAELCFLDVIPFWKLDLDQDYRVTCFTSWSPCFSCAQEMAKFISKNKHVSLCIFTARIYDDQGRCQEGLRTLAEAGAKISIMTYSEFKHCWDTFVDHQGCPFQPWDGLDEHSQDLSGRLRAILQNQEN
Sequence of Large T antigen (P03070 whole entry): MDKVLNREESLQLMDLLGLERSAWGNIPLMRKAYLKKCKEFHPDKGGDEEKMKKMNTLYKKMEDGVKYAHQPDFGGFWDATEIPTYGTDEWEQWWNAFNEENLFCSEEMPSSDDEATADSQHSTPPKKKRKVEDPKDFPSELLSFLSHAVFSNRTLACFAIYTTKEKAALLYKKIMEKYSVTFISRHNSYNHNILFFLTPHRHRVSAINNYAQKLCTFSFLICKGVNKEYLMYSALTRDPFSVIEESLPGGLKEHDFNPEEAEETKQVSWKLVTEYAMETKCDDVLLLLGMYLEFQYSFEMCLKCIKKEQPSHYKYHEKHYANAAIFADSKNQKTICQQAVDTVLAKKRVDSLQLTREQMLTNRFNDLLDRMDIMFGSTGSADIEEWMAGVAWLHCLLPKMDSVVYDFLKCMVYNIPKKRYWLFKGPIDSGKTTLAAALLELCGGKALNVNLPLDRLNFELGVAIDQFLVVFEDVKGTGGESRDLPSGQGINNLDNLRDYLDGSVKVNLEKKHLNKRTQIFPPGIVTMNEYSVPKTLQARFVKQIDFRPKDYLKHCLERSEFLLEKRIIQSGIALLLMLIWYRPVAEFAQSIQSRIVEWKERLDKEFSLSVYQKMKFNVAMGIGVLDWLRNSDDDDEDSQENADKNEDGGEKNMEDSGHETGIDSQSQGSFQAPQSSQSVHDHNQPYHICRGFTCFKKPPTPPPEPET
Sequence of Cytochrome P450 2D6 (P10635 whole entry): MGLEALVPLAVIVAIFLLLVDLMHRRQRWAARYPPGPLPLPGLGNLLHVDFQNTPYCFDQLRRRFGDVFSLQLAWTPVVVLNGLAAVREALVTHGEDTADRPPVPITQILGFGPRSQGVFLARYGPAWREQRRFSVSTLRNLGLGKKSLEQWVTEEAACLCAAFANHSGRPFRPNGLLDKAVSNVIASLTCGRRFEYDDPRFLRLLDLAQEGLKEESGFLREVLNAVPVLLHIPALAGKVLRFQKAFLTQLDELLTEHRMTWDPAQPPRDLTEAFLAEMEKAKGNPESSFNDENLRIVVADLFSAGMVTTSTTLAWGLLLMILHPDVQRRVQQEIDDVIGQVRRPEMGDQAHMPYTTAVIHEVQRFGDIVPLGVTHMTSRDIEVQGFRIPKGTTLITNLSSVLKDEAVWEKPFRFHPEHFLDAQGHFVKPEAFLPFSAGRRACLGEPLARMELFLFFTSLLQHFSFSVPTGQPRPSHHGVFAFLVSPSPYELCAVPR
Sequence of Cytochrome P450 2C9 (P11712 whole entry): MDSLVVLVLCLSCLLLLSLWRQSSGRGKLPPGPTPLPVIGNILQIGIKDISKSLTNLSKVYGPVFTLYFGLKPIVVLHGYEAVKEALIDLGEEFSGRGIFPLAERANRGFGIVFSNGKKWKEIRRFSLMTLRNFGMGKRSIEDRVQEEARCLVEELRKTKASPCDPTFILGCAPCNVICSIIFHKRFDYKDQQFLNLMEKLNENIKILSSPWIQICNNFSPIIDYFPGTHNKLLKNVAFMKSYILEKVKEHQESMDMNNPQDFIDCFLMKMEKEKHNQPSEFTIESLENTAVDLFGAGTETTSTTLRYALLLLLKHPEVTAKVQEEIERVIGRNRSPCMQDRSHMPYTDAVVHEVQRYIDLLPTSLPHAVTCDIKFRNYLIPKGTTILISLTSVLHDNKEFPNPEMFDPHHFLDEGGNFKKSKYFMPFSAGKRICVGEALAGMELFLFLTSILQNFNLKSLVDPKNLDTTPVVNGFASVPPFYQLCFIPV

CCn1c(CN2CCN(c3ccc(Cl)cc3)CC2)nc2ccccc21
IC50 [1]: > 80 µM (inactive)

CCOC(=O)/C(C#N)=N\Nc1cc(Cl)ccc1OC
EC50 [2]: 44.1 µM (inactive) | EC50 [3]: > 99 µM (inactive)

COCCCN=C(S)NN=C(S)Nc1ccc(F)cc1F
IC50 [4]: 10.1 µM (active)

CCC1CCc2sc(C(=O)O)cc2C1 (centres undefined)
EC50 (cells [5]): > 350 µM (not active) | EC50 (cells [6]): > 350 µM (not active)

O=[N+]([O-])c1ccc(N/N=C/c2ccccc2)c(F)c1
CC50 [7]: > 50 µM (active) | EC50 [2]: 27.2 µM (inactive) | EC50 [3]: > 99 µM (inactive)

COc1cc(/C=N/NC(=O)c2ccccc2)ccc1O
IC50 [8]: 29.9 µM (active) | IC50 (Large T antigen): 10.5 µM (active)

COc1cccc(-c2cc(C(=O)Nc3cccc(O)c3)no2)c1
AC50 [9]: 42.3 µM (active) | AC50 [10]: 7.52 µM (active) | AC50 (Cytochrome P450 2D6): 22.4 µM (inconclusive) | AC50 (Cytochrome P450 2C9): inconclusive | AC50 [11]: 8.73 µM (active)

CCN(CC)S(=O)(=O)c1ccc(C(=O)/C=C/c2ccc(-c3ccc([N+](=O)[O-])cc3)o2)cc1
EC50 [2]: > 99 µM (inactive) | EC50 [3]: > 99 µM (inactive)

c1ccc(COc2ccc(OCCCN3CCCC3)cc2)cc1
AC50 [9]: > 52 µM (inactive) | AC50 [10]: 0.751 µM (active) | AC50 [11]: 1.19 µM (active)

O=C1NC(=O)N(Cc2ccccc2Cl)C(=O)/C1=C/c1cccs1
AC50 [12]: 29.7 µM (active)

Cc1nnc2c3ccccc3c(-c3ccccc3)nn12
IC50 [1]: > 80 µM (inactive)

CN1CCN(c2ccc(NC(=O)c3ccc([N+](=O)[O-])o3)cc2Cl)CC1
AC50 [12]: 9.02 µM (active)

COc1cc(/C=N/Nc2nc(Nc3ccccc3)nc(N3CCOCC3)n2)ccc1OC(=O)c1ccco1
IC50 [1]: > 80 µM (inactive) | EC50 [13]: 0.895 µM (active) | EC50 [14]: 6.73 µM (active)

CC1(C)O[C@@H]2[C@H](O1)[C@@H](COS(=O)(=O)O)O[C@H]2n1c(S)nc2c(O)nc(N)nc21
IC50 [8]: 53.7 µM (active) | IC50 [4]: 34.8 µM (active)

Nc1ccccc1SSc1ccccc1N
IC50 [8]: 86.1 µM (active) | IC50 [4]: 25.8 µM (active)

FC(F)(F)c1ccc(CSc2ccccn2)cc1
EC50 (cells [5]): > 350 µM (not active) | EC50 (cells [6]): 70 µM (active)

O=C(CCCCl)NC1=NN(c2ccccc2)C(=O)C1
IC50 (Large T antigen): 30.9 µM (active)
